{"source": "patent USRE40839E1", "about": "(The United States of America as represented by the …, priority 1992, dated 2009)", "key": {"[1]": {"test_system": "breast cancer", "conditions": "24 hour infusion at 250 mg/M^2; similar breast cancer patient group; cited from earlier work"}, "[2]": {"test_system": "breast cancer", "experiment": "96 hour continuous infusion every 21 days in breast cancer patients", "conditions": "70-140 mg/M^2/96 hrs every 21 days"}, "[3]": {"test_system": "refractory acute leukemia", "conditions": "cited from earlier work"}, "[4]": {"test_system": "mammalian cells", "conditions": "actively dividing cells; cited from earlier work"}, "[5]": {"test_system": "ovarian cancer", "conditions": "34 patients with ovarian cancer; 250 mg/M^2 as 24 hour continuous infusion; cited from earlier work"}, "[6]": {"test_system": "melanoma", "conditions": "30 patients with melanoma; 250 mg/M^2 as 24 hour continuous infusion; cited from earlier work"}, "[7]": {"test_system": "diffuse large cell lymphoma", "experiment": "96 hour continuous infusion every 21 days in lymphoma patients", "type": "in vivo, human", "conditions": "70-140 mg/M^2/96 hrs every 21 days", "text": "This 96 hr continuous infusion was repeated every 21 days, while patients were monitored for a response after every two cycles."}, "[8]": {"test_system": "patients", "conditions": "infusion times up to 24 hours; cited from earlier work"}, "[9]": {"conditions": "6 patients with diffuse large cell lymphoma"}}}
{"smiles": "CC(=O)O[C@H]1C(=O)[C@@]2(C)[C@H]([C@H](OC(=O)c3ccccc3)[C@]3(O)C[C@H](OC(=O)[C@H](O)[C@@H](NC(=O)c4ccccc4)c4ccccc4)C(C)=C1C3(C)C)[C@]1(OC(C)=O)CO[C@@H]1C[C@@H]2O", "note": "[Taxol]", "values": [{"measurement": "response rate", "setting": "[1]", "result": 33, "unit": "%"}, {"measurement": "number of minor remissions (MR)", "setting": "[2]; 11 breast cancer patients", "result": 2, "unit": "patients"}, {"measurement": "number of partial remissions (PR)", "setting": "[2]; 11 breast cancer patients", "result": 7, "unit": "patients"}, {"measurement": "partial remission rate", "setting": "[2]; 11 breast cancer patients", "result": 64, "unit": "%"}, {"measurement": "total response rate", "setting": "[2]; 11 breast cancer patients", "result": 82, "unit": "%"}, {"measurement": "patients with positive response (PR + MR)", "setting": "[2]; breast cancer, prior doxorubicin or mitoxantrone regimen", "result": "9 out of the 11"}, {"measurement": "toxicity limiting further dose escalation", "setting": "[3]; 17 patients, 24 hour continuous infusion, 200 to 390 mg/M^2", "result": "Severe mucositis"}, {"measurement": "maximum tolerated dose", "setting": "[3]; 17 patients, 24 hour continuous infusion, escalated from 200 to 390 mg/M^2", "result": 390, "unit": "mg/M^2"}, {"measurement": "patients with transient reductions in peripheral blood and bone marrow blasts", "setting": "[3]; of 17 patients", "result": "Nine"}, {"measurement": "Taxol concentration that usually causes a significant increase in microtubule number, changes in cell shape and mitotic arrest", "setting": "[4]", "result": 50, "unit": "Nm"}, {"measurement": "major toxicities", "setting": "[5]", "result": "neutropenia and peripheral neuropathy"}, {"measurement": "objective response rate", "setting": "[5]", "result": 21, "unit": "%"}, {"measurement": "objective response rate", "setting": "[6]", "result": 13, "unit": "%"}, {"measurement": "number of minor remissions (MR)", "setting": "[7]; [9]", "result": 1, "unit": "patients"}, {"measurement": "number of partial remissions (PR)", "setting": "[7]; [9]", "result": 3, "unit": "patients"}, {"measurement": "partial remission rate", "setting": "[7]; [9]", "result": 50, "unit": "%"}, {"measurement": "patients in whom Taxol was active (PR + MR)", "setting": "[7]; diffuse large cell lymphoma", "result": "4 out of 6"}, {"measurement": "dose limiting toxicity", "setting": "[8]", "result": "reversible myclosuppression"}]}
